Assay results taken from patent publication US20230312449A1, “CARBOXYLIC ACID COMPOUND, AND PREPARATION METHOD THEREFOR AND APPLICATION THEREOF” (BOTREE CYCLING SCI & TECH CO., LTD., priority 2020, published 2023).
“And” between values parts separate entries of the source, which are not always exact repeats. Equal entries are not always repeated.

Assay: Solubility of extractant in extraction system, oil content by CH2Cl2 extraction and weighing (Ni/Mg chloride system)
Format: physicochemical
Settings: 0.62 mol/L in Escaid 110; saponification 24%; nickel chloride solution 1.33 g/L Ni, 4 g/L Mg; 30 min; 25° C.
Method: Compound BC195 and diluent Escaid 110 were prepared into a 0.62 mol/L solution, and an aqueous phase was a magnesium-enriched nickel chloride solution containing 1.33 g/L Ni and 4 g/L Mg; 100 mL of the organic phase was added in a 250 mL separatory funnel, 10 mol/L sodium hydroxide aqueous solution was added for saponification to a saponification proportion of 24%, and after the saponification, 100 mL of the aqueous phase was added, extraction equilibrium was carried out for 30 min, and the temperature was 25° C.
Oil content test: the aqueous phase was separated out and added with H2SO4, and the [H^+] concentration of the aqueous phase solution was about 1 mol/L. The CH2Cl2 was used for extraction (30 mL×3), and the CH2Cl2 layer was collected, dried with 1 g anhydrous Na2SO4 to remove the water in CH2Cl2, and filtered; the filtrate was subjected to rotary evaporation, and then the residue was dried with an oil pump for 30 min. The oil content which CH2Cl2 extracted out in the system was obtained by weighing the flask before and after the rotary evaporation.
This comparative example differs from Performance Example 6 in that Compound BC195 was replaced by Extractant CA12 (commercially available, with an acid content of 98%).

CCCCCCC(OCC(CC)CCCC)C(=O)O (stereo not shown) [Compound BC195]
Equilibrium pH: 7.2 and 7.23
